In ChEMBL document CHEMBL1153130, “Discovery of dipiperidines as new antitubercular agents” (Bioorg Med Chem Lett, 2010):
pIC50: −log10 of the molar value. Converted amounts (≈) assume the structure as drawn.

Key:
[1] = test system: Mycobacterium tuberculosis; assay: Antitubercular activity against Mycobacterium tuberculosis H37Rv after 10 to 14 days by broth microdilution assay; type: functional
[2] = test system: Mycobacterium tuberculosis; assay: Antitubercular activity against Mycobacterium tuberculosis H37Rv assessed as inhibition of cell wall biosynthesis after 10 to 14 days by bioluminescence assay relative to ethambutol; type: functional; parameters: scale not given: the % may be the effect or the level left
HepG2 = assay: Cytotoxicity against human HepG2 cells after 72 hrs by MTS assay; type: cell-based; settings: HepG2, 72 h
[3] = Selectivity index, IC50 for human HepG2 cells to MIC for Mycobacterium tuberculosis H37Rv ATCC 25618; type: functional
[4] = test system: Mycobacterium tuberculosis; assay: Antitubercular activity against Mycobacterium tuberculosis H37Rv after 10 to 14 days by BACTEC assay; type: functional

| Compound | MIC [1] [µM] | Activity [2] [%] | pIC50 (HepG2) | Selectivity Index [3] | MIC [4] [µM] |
| --- | --- | --- | --- | --- | --- |
| OC1CCN(CC2CCN(C3C4CC5CC(C4)CC3C5)CC2)CC1 (centres undefined) | 31.2 (≈ 10.4 µg/mL) | 102 | 4.60 | 0.8 | – |
| OC1CCN(CC2CCN(CC34CC5CC(CC(C5)C3)C4)CC2)CC1 | 6.25 (≈ 2.17 µg/mL) | 59 | 4.25 | 8.96 | 15.6 (≈ 5.41 µg/mL) |
| OC1CCN(CC2CCN(CC(c3ccccc3)c3ccccc3)CC2)CC1 | 7.8 (≈ 2.95 µg/mL) | 125 | 4.52 | 3.85 | 16 (≈ 6.06 µg/mL) |
